According to patent US20110306638A1, “BENZISOXAZOLE PIPERIDINYL DERIVATIVES, PHARMACEUTICAL COMPOSITIONS COMPRISING THE DERIVATIVES AND THEIR USE” (NHWA PHARMA. CORPORATION, priority 2008, published 2011):
Marks after values point to notes of the source that are not given here.

Key:
[1] = target: opioid receptor subtype δ (Homo sapiens, UniProt P41143); assay: Competitive binding to opioid receptor subtype δ, [3H]Diprenorphine
Description: The respective test compounds were added to the sample tube (final concentration of 10^−5M), incubated at 37° C. for 30 min and placed in ice bath to terminate the reaction. The reaction mixture was filtered through GF/C (Whatman) glass fiber filter by vacuum filtration on a Millipore sample collector. The filter was washed three times with 50 mM Tris-HCl (pH7.4), each with 4 ml; dried and transferred into a 0.5 ml Eppendorf tube, in which 0.5 ml lipophilic scintillation fluid was added. Radioactivity was detected by a LS6500 scintillation counter. Each concentration had three duplicate test tubes and each separate test was repeated 3 to 4 times.
Specific binding CMP value for each sample tube=overall binding CPM value for each sample tube−CPM value of non-specific binding tube.
[Inhibition percentage of competitive binding between the test compound and different opioid receptor subtypes (%)=(100%−specific binding (CPM value)of sample tube/specific binding(CPM value)of solvent group×100%)]
Average was taken for each test drug from three duplicate tubes; each test was repeated two or more times. Data were presented as mean±SE and statistical comparison was made by ANOVA.

Kunming mice = assay: Hot-plate test in mice; type: in vivo; settings: 1 h post dose
Description: Kunming mice, SPF KM mice were purchased from […] SLAC LABORATORY ANIMAL CO. LTD and kept in normal environment.
The compounds were dissolved in water for injection at a concentration of 4 mg/ml, 2 mg/ml and 1 mg/ml and were given subcutaneously to animals.
Three different doses (10, 20, and 40 mg/kg) were administered to the test groups.
Morphine was used as a positive control and hot plate test was used.
30-40 mice (half male and half female) weighed from 18 to 23 gram were used. First, each mouse was placed on a hot plat at 55° C. to determine basic pain threshold for 2-3 times. Those animals with basic pain threshold of 5-30 s were qualified, unqualified mice were not used. 30 qualified mice were divided into five groups, including negative control group, positive control group, low-dose group, medium-dose group and high-dose group:
Mice in test groups received test sample solution (10 mg/kg, 20 mg/kg, 40 mg/kg) via subcutaneous injection in the neck. Positive control group received subcutaneous injection of morphine (2 mg/kg). One hour later, pain threshold values were determined for mice in each group as post-drug pain threshold. Percentage increase in pain threshold was calculated according to the following equation: […]

[2] = target: T1, 5-HT reuptake by brain synapses (Rattus norvegicus, UniProt P31652); assay: [3H]5-HT reuptake test in rat brain synapses; type: biochemical
T1 construct: forehead cortex was obtained for [^3H]5-HT, [^3H]NA reuptake test; from tissue; host or cells: rat (SD) forebrain cortex synaptosomes
T1 sequence (P31652 whole entry): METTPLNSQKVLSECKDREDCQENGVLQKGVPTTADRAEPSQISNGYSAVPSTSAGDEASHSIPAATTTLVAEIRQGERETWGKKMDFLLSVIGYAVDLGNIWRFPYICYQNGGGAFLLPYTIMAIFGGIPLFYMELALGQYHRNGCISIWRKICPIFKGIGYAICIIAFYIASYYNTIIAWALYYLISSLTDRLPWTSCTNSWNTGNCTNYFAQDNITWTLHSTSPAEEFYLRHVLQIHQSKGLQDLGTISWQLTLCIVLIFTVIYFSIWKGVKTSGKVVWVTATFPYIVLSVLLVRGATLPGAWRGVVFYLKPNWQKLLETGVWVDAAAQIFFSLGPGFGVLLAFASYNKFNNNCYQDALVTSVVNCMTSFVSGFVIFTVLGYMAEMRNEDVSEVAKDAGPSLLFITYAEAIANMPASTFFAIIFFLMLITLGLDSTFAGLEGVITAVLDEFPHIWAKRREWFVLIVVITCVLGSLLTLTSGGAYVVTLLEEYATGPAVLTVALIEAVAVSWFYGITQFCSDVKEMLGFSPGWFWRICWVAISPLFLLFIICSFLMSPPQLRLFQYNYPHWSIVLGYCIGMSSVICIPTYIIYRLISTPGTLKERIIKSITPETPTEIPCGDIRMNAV
Description: The method was as follows:
Male SD rats were killed by cervical dislocation, heads were immediately cut and brains were obtained and put on ice, related brain tissues were dissected (forehead cortex was obtained for [^3H]5-HT, [^3H]NA reuptake test, corpus striatum was obtained for [^3H]DA reuptake).
After the sample was weighed, 10 folds (V/W) ice cold 0.32 mol/L sucrose solution was added.
According to [a. […] 5-HT was added and after incubation in water bath at 37° C. for 10 min, the reaction mixture was immediately taken out of the water bath and 2 ml ice cold 150 mmol/L Tris-HCl was added to terminate the reaction. The sample was collected on a round glass fiber filter by vacuum filtration and washed three times with 3 ml ice cold Tris-HCl buffer. The filter membrane was removed, dried in a far-infrared oven for 15 min, then transferred into a EP tube, in which 1.5 ml scintillation fluid was added, left overnight and detected by a scintillation counter. The test sample was not added into solvent controlled overall binding tube or non-specific binding tube. 50 μl solvent was added into the overall binding tube, and in [^3H] 5-HT reuptake test, 600 μmol/L cocaine was added into the non-specific binding tube.

Sequence of opioid receptor subtype δ (P41143 whole entry): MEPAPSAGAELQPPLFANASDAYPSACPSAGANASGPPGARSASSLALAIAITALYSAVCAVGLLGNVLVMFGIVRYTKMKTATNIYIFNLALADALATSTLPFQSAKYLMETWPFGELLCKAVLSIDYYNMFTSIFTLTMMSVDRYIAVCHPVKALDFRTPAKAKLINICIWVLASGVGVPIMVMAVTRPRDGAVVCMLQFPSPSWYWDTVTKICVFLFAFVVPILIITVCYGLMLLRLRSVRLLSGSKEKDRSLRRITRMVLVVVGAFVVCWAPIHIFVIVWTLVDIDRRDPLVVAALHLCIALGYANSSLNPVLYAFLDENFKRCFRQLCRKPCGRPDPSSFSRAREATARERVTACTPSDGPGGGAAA

SMILES: N#Cc1ccc2ccn(CCCCN3CCC(c4noc5cc(F)ccc45)CC3)c2c1 [II-9, 1-(4-(4-(6-fluorobenzo[d]isoxazol-3-yl)piperidin-1-yl)butyl)-1H-indole-6-carbonitrile]
- affinity to opioid receptor subtype δ (in words) [1]: no obvious affinity
- inhibition at 10 µM ([1]; tested concentration 10^−5 mol/L, read-out: δ inhibition percentage of competitive binding): 0%
- Percentage increase in pain threshold (Kunming mice; 10 mg/kg S.c.): 97.98* %
- Percentage increase in pain threshold (Kunming mice; 20 mg/kg S.c.): 220.49** %
- Percentage increase in pain threshold (Kunming mice; 40 mg/kg S.c.): 229.39** %
- inhibitory activity on 5-HT reuptake (in words) ([2]; at 10 μmol/L, compared with Dutoxetine): potent inhibitory activities
- inhibition at 10 µM ([2]; final concentration 10 umol/L, rat brain synapses, read-out: 5-HTU [3H] 5-HT reuptake inhibition percentage Mean): 105%
